One data set concerns the target T1, human VR1 (Homo sapiens, UniProt Q8NER1).
T1 construct: expressed in transfected cells
The experiment in a line: Capsaicin-induced Ca2+ influx in the human VR1-transfected CHO cell line (Assay 1). Type of data set: cell-based. Put shortly: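 CHO cells expressing human VR1 with an aequorin reporter were treated with compound or vehicle for 20 min at 25° C. Capsaicin-induced Ca^2+ influx was then measured on an FDSS-3000. Integral R was calculated and compared with controls.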

The mark [1] stands for this setting: human VR1-CHOluc9aeq cells, 10 nM capsaicin, compound purity about 40 to 90%, read-out: hVR1 class.

Like-named read-outs stand apart in the source and are kept apart here.

T1 sequence (Q8NER1 whole entry): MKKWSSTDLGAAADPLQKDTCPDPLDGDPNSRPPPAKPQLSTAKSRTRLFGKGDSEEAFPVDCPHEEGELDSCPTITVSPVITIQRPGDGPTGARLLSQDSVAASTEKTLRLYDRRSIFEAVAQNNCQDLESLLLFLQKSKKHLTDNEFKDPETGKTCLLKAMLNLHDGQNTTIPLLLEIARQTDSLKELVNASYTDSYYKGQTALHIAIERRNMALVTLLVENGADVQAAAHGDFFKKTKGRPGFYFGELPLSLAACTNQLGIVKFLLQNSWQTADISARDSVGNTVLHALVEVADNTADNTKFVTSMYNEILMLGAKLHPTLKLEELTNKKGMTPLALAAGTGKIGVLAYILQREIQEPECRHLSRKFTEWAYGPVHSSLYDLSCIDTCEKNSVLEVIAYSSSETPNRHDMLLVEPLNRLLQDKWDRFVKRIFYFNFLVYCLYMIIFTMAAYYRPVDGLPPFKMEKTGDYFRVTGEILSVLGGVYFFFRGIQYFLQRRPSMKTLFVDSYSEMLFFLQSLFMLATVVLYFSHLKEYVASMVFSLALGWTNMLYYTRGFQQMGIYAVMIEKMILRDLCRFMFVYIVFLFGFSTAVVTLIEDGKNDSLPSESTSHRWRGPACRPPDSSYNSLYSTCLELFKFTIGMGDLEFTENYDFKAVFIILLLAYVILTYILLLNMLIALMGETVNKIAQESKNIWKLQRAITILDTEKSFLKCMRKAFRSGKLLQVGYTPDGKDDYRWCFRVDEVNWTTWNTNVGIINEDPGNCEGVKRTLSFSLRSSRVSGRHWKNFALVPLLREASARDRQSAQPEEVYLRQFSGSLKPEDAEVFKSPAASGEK

As for `O=C(Nc1ccc(Br)c(C(F)(F)F)c1)Nc1ccccc1CCO` [Example 185], the melting point (as a rule, the temperature, or range, at which the solid turns liquid) is 161 to 164 °C. The IC50 at human VR1 (setting [1]) was less than 0.1 µM.

In turn, `N#Cc1ccc(NC(=O)Nc2ccccc2CCO)cc1C(F)(F)F` [Example 186] displayed a melting point of 171 °C. At human VR1, this compound yielded an IC50 of less than 0.1 µM.

With `O=C(Nc1ccc([N+](=O)[O-])c(C(F)(F)F)c1)Nc1ccccc1CCO` [Example 187], the melting point was in the range of 149 to 150 °C. Besides, the IC50 on human VR1 (setting [1]) was in the range of 0.1 to 0.5 µM.

For the compound `COc1cc(NC(=O)Nc2ccccc2CCO)cc(C(F)(F)F)c1` [Example 188], the melting point lay within 161 to 162 °C. For the same compound, at human VR1 (setting [1]), the IC50 is less than 0.1 µM.

In turn, `O=C(Nc1cc(C(F)(F)F)ccc1F)Nc1ccccc1CCO` [Example 189] came in with a melting point of 150 to 152 °C. For the same compound, on human VR1 (setting [1]), the IC50 is 0.5 to 1 µM.

Compound `O=C(Nc1ccc(F)c(Cl)c1)Nc1ccccc1CCO` [Example 190] showed a melting point of 193 to 194 °C. Also, the IC50 at human VR1 (setting [1]) fell in the range of 0.1 to 0.5 µM.

`N#Cc1ccc(NC(=O)Nc2ccccc2CCO)cc1Cl` [Example 191] showed a melting point of 186 to 187 °C. For the same compound, the IC50 at human VR1 (setting [1]) fell in the range of 0.1 to 0.5 µM.

In turn, `O=C(Nc1ccc(-c2ccc(F)cc2)cc1)Nc1ccccc1CCO` [Example 192] returned a melting point of 197 °C. Moreover, the IC50 at human VR1 (setting [1]) fell in the range of 0.1 to 0.5 µM.

In the case of `O=C(Nc1cccc(-c2cccc(Cl)c2)c1)Nc1ccccc1CCO` [Example 195], the melting point was found to be 175 °C. Further, the IC50 on human VR1 (setting [1]) is less than 0.1 µM.

With `O=C(Nc1cccc(-c2ccccc2Cl)c1)Nc1ccccc1CCO` [Example 196], the melting point came to 153 °C. Besides, the IC50 on human VR1 (setting [1]) was less than 0.1 µM.

As to `Cc1ccc(C)c(-c2cccc(NC(=O)Nc3ccccc3CCO)c2)c1` [Example 197], the melting point worked out at 167 °C. Further, the IC50 on human VR1 (setting [1]) is less than 0.1 µM.

For `COc1ccc(OC)c(-c2cccc(NC(=O)Nc3ccccc3CCO)c2)c1` [Example 198], the melting point was found to be 170 °C. For the same compound, the IC50 on human VR1 (setting [1]) was in the range of 0.1 to 0.5 µM.

As for `O=C(Nc1cccc(-c2ccc(F)cc2F)c1)Nc1ccccc1CCO` [Example 199], the melting point came out at 169 °C. Also, the IC50 at human VR1 (setting [1]) is less than 0.1 µM.

Compound `Cc1ccc(-c2cccc(NC(=O)Nc3ccccc3CCO)c2)cc1` [Example 200] returned a melting point of 178 °C. Moreover, the IC50 at human VR1 (setting [1]) is less than 0.1 µM.

`O=C(Nc1ccc(-c2ccccc2)cc1)Nc1ccccc1CCO` [Example 201] gave a melting point of 194 °C. Further, the IC50 on human VR1 (setting [1]) was 0.1 to 0.5 µM.

With `O=C(Nc1ccc(Cl)c(-c2ccccc2)c1)Nc1ccccc1CCO` [Example 202], the melting point is 185 °C. For the same compound, the IC50 on human VR1 (setting [1]) is 0.1 to 0.5 µM.

In turn, `O=C(Nc1cccc(-c2cccs2)c1)Nc1ccccc1CCO` [Example 203] yielded a melting point of 195 °C. For the same compound, the IC50 on human VR1 (setting [1]) was less than 0.1 µM.

For `COc1ccc(-c2cccc(NC(=O)Nc3ccccc3CCO)c2)cc1` [Example 204], the melting point was 166 °C. For the same compound, the IC50 at human VR1 (setting [1]) was less than 0.1 µM.

`COc1ccccc1-c1cccc(NC(=O)Nc2ccccc2CCO)c1` [Example 205] returned a melting point of 130 °C. Besides, the IC50 at human VR1 (setting [1]) lay within 0.1 to 0.5 µM.

The compound `CSc1ccc(-c2cccc(NC(=O)Nc3ccccc3CCO)c2)cc1` [Example 206] registered a melting point of 191 °C. For the same compound, on human VR1 (setting [1]), the IC50 is less than 0.1 µM.

Take `O=C(Nc1cccc(-c2ccc(F)c(F)c2)c1)Nc1ccccc1CCO` [Example 207]: the melting point was 181 °C. The IC50 on human VR1 (setting [1]) is less than 0.1 µM.

Consider `O=C(Nc1cccc(-c2cc(F)cc(F)c2)c1)Nc1ccccc1CCO` [Example 208], for which the melting point amounted to 169 °C. For the same compound, the IC50 at human VR1 (setting [1]) was less than 0.1 µM.

Take `O=C(Nc1cccc(-c2cc(Cl)ccc2Cl)c1)Nc1ccccc1CCO` [Example 209]: the melting point stood at 142 °C. In addition, the IC50 on human VR1 (setting [1]) is less than 0.1 µM.

On to `O=C(Nc1cccc(-c2ccccc2F)c1)Nc1ccccc1CCO` [Example 210], for which the melting point was in the range of 171 to 172 °C. The IC50 on human VR1 (setting [1]) was less than 0.1 µM.

`O=C(Nc1cccc(-c2cccc(F)c2)c1)Nc1ccccc1CCO` [Example 211] returned a melting point of 188 °C. The IC50 on human VR1 (setting [1]) was less than 0.1 µM.

Regarding `O=C(Nc1cccc(-c2cccnc2)c1)Nc1ccccc1CCO` [Example 212], the melting point was found to be 178.9 °C. At human VR1 (setting [1]), the IC50 lay within 0.5 to 1 µM.

Compound `O=C(Nc1cccc(-c2cc(F)ccc2F)c1)Nc1ccccc1CCO` [Example 213] showed a melting point of 150 °C. In addition, the IC50 on human VR1 (setting [1]) was less than 0.1 µM.

For the compound `O=C(Nc1cccc(-c2cccc3ccccc23)c1)Nc1ccccc1CCO` [Example 214], the melting point came out at 113 °C. Further, the IC50 on human VR1 (setting [1]) was less than 0.1 µM.

On to `O=C(Nc1cccc(-c2ccc(F)c(Cl)c2)c1)Nc1ccccc1CCO` [Example 215], for which the melting point was 176 °C. Besides, the IC50 on human VR1 (setting [1]) was less than 0.1 µM.

`O=C(Nc1cccc(-c2ccc(Cl)c(Cl)c2)c1)Nc1ccccc1CCO` [Example 216]: the melting point came to 180 °C. Also, on human VR1 (setting [1]), the IC50 is less than 0.1 µM.

Consider `O=C(Nc1cccc(-c2cc(Cl)cc(Cl)c2)c1)Nc1ccccc1CCO` [Example 217], for which the melting point turned out to be 184 °C. Moreover, at human VR1 (setting [1]), the IC50 is less than 0.1 µM.

`O=C(Nc1ccc(Cl)c(-c2ccc(Cl)cc2)c1)Nc1ccccc1CCO` [Example 218]: the melting point was 170 to 172 °C. The IC50 at human VR1 (setting [1]) was less than 0.1 µM.

`COc1ccc(NC(=O)Nc2ccccc2CCO)cc1OC` [Example 219]: the melting point was in the range of 186 to 187 °C. In addition, the IC50 on human VR1 (setting [1]) was in the range of 0.5 to 1 µM.

`O=C(Nc1ccc2c(c1)OCO2)Nc1ccccc1CCO` [Example 220] displayed a melting point of 183 to 184 °C. Moreover, at human VR1 (setting [1]), the IC50 was in the range of 0.5 to 1 µM.

In turn, `O=C(Nc1ccc2[nH]ncc2c1)Nc1ccccc1CCO` [Example 221] returned a melting point of 234 to 236 °C. Also, the IC50 at human VR1 (setting [1]) was in the range of 0.5 to 1 µM.

Regarding `O=C(Nc1cccc(-c2ccc(C(F)(F)F)cc2)c1)Nc1ccccc1CCO` [Example 222], the melting point came to 198 °C. Further, the IC50 on human VR1 (setting [1]) is less than 0.1 µM.

`O=C(Nc1cccc(-c2ccc(Cl)cc2Cl)c1)Nc1ccccc1CCO` [Example 223] gave a melting point of 166 °C. Also, on human VR1 (setting [1]), the IC50 is less than 0.1 µM.

Consider `CC(=O)c1ccc(-c2cccc(NC(=O)Nc3ccccc3CCO)c2)cc1` [Example 224], for which the melting point turned out to be 205 °C. Moreover, the IC50 on human VR1 (setting [1]) is less than 0.1 µM.

In the case of `CCOC(=O)c1ccc(-c2cccc(NC(=O)Nc3ccccc3CCO)c2)cc1` [Example 225], the melting point turned out to be 196 °C. Moreover, on human VR1 (setting [1]), the IC50 was less than 0.1 µM.

`CCOC(=O)c1cccc(-c2cccc(NC(=O)Nc3ccccc3CCO)c2)c1` [Example 226]: the melting point came to 133 °C. Moreover, the IC50 on human VR1 (setting [1]) was less than 0.1 µM.

Compound `COc1ccc(Cl)cc1-c1cccc(NC(=O)Nc2ccccc2CCO)c1` [Example 227] registered a melting point of 141 to 143 °C. For the same compound, the IC50 on human VR1 (setting [1]) is less than 0.1 µM.

Compound `COc1ccc(Cl)cc1-c1cccc(NC(=O)Nc2ccccc2CCO)c1` [Example 228] had a melting point of 126 to 129 °C. Also, at human VR1 (setting [1]), the IC50 is less than 0.1 µM.

In turn, `O=C(Nc1cccc(-c2ccc([N+](=O)[O-])cc2)c1)Nc1ccccc1CCO` [Example 229] returned a melting point of 197 to 198 °C. In addition, at human VR1 (setting [1]), the IC50 was less than 0.1 µM.

Regarding `N#Cc1ccc(-c2cccc(NC(=O)Nc3ccccc3CCO)c2)cc1` [Example 230], the melting point lay within 180 to 182 °C. Moreover, the IC50 on human VR1 (setting [1]) was less than 0.1 µM.

`COc1cccc(OC)c1-c1cccc(NC(=O)Nc2ccccc2CCO)c1` [Example 231] had a melting point of 180 to 181 °C. Moreover, the IC50 at human VR1 (setting [1]) is 0.5 to 1 µM.

`N#Cc1cccc(-c2cccc(NC(=O)Nc3ccccc3CCO)c2)c1` [Example 232] had a melting point of 186 to 187 °C. Also, the IC50 at human VR1 (setting [1]) was less than 0.1 µM.

For the compound `O=C(Nc1cccc(-c2ccccc2Cl)c1)Nc1cc(C(F)(F)F)ccc1CCO` [Example 233], the melting point lay within 185 to 187 °C. At human VR1 (setting [1]), the IC50 is 0.1 to 0.5 µM.

`O=C(Nc1cccc(-c2cccc([N+](=O)[O-])c2)c1)Nc1ccccc1CCO` [Example 234] showed a melting point of 188 °C. Moreover, the IC50 on human VR1 (setting [1]) is less than 0.1 µM.

Take `COc1ccc(F)cc1-c1cccc(NC(=O)Nc2ccccc2CCO)c1` [Example 235]: the melting point fell in the range of 158 to 160 °C. Besides, the IC50 at human VR1 (setting [1]) was less than 0.1 µM.

Regarding `O=C(Nc1cccc(-c2ccc(OCc3ccccc3)c(F)c2)c1)Nc1ccccc1CCO` [Example 236], the melting point is 181 to 182 °C. For the same compound, the IC50 at human VR1 (setting [1]) is less than 0.1 µM.

Compound `COc1cc(-c2cccc(NC(=O)Nc3ccccc3CCO)c2)cc(OC)c1OC` [Example 237] returned a melting point of 81 to 83 °C. Moreover, the IC50 at human VR1 (setting [1]) fell in the range of 0.1 to 0.5 µM.

In turn, `O=C(Nc1cccc(-c2cccc(C(F)(F)F)c2)c1)Nc1ccccc1CCO` [Example 238] came in with a melting point of 180 °C. In addition, the IC50 at human VR1 (setting [1]) was less than 0.1 µM.

Compound `O=C(Nc1cccc(-c2cccc(OC(F)(F)F)c2)c1)Nc1ccccc1CCO` [Example 239] registered a melting point of 166 °C. The IC50 at human VR1 (setting [1]) was less than 0.1 µM.

`O=C(Nc1cccc(-c2ccc(OC(F)(F)F)cc2)c1)Nc1ccccc1CCO` [Example 240] had a melting point of 184 °C. Further, the IC50 on human VR1 (setting [1]) is less than 0.1 µM.

Take `O=C(Nc1cccc(-c2ccccc2C(F)(F)F)c1)Nc1ccccc1CCO` [Example 241]: the melting point came to 153 °C. Besides, on human VR1 (setting [1]), the IC50 is less than 0.1 µM.

For the compound `COc1cccc(-c2cccc(NC(=O)Nc3ccccc3CCO)c2)c1` [Example 242], the melting point amounted to 163 °C. For the same compound, the IC50 at human VR1 (setting [1]) was less than 0.1 µM.

Regarding `O=C(Nc1ccc(-c2ccccc2)s1)Nc1ccccc1CCO` [Example 243], the melting point stood at 159 °C. The IC50 on human VR1 (setting [1]) was less than 0.1 µM.

`O=C(Nc1ccc(-c2ccccc2)c(Cl)c1)Nc1ccccc1CCO` [Example 244] showed a melting point of 178 °C. Further, the IC50 on human VR1 (setting [1]) is 0.1 to 0.5 µM.

These data come from patent publication US20050154230A1, “Urea derivatives” (Bayer HealthCare AG, priority 2001, published 2005).
